The subject of the assay is SK-Hep-1, a liver adenocarcinoma (hepatoma) cells. Nature of the assay: BrdU cell proliferation ELISA, adriamycin plus ascorbate adjuvant, hepatoma cells. It is filed as cell-based, human. The following applies: for suppression of hepatoma proliferation, ADR plus adjuvant compared with ADR alone: adjuvant 0.5 mM AA equivalents, one application of ADR (0.003-0.3 micromolar), two applications of adjuvant, FIG. 1. From the text:
Calcium ascorbate (CA), calcium threonate (CT), 4-hydroxy-5-methyl-3(2H)-furanone (FR) and Ester-C (EC) are obtained from Inter-Cal Corporation, Prescott, Ariz., USA. Tissue culture grade Ascorbic acid (AA) is from Sigma Chemical Company, St. Louis, Mo., USA. The composition of calcium ascorbate (calcium di-(L-ascorbate) dihydrate) is made by sequentially dissolving individual components in sterile water to obtain master-stock solutions of equal strength (1% w/v). Aqueous solution of calcium ascorbate plus calcium threonate plus 4-hydroxy-5-methyl-3(2H)-furanone (CA/CT/FR) is prepared at ratio of 85/7.5/7.5. For comparative analysis, stock solutions containing identical ascorbic acid (AA) equivalents are used. All master stocks are stored at room temperature during the course of these procedures. From these, 10× strength working stocks are prepared by serial dilution on the day of use and are applied to cells in microtiter plates as described below.
Adriamycin (doxorubicin) is obtained from Sigma Chemical Company (St. Louis, Mo.). Stock solutions are made by dissolving adriamycin (ADR) in sterile water and DTIC in water or dilute acetic acid solution (0.01N). Stocks are stored frozen at −10 C and thawed prior to use. Serial dilutions are made in sterile water to obtain 10× strength solutions and […] of this is applied to cells at the time of treatment.
Target human tumor-derived or normal lines consist of SK-Hep-1, a liver adenocarcinoma ([…]) and Malme-3M, a malignant melanoma. All seed cultures are obtained from ATCC, Mannassas, Va., USA and are propagated/maintained in serum-containing growth medium in a humidified incubator of 5% CO2/95% air. SH-Hep-1 cells are grown in Eagle's minimum essential medium (EMEM) in Earle's salts plus non-essential amino acids supplemented with 10% FBS plus antibiotics and Malme-3M cells are cultured in McCoy's medium supplemented with 15% fetal bovine serum (FBS) plus antibiotics.
For treatment, exponentially growing cells are seeded at a density of 1×10^4 cells per well of 96-well microtiter plate in 0.1-0.2 ml of growth medium. After overnight cell attachment at 37 C, duplicate wells are exposed to various treatments by direct application of one-tenth volume of 10× strength solution. For treatments involving chemotherapeutic agent, one-tenth volume of serial dilutions of adriamycin (0.0006-3.0 micromolar) are applied to wells followed by application of ascorbate-containing composition (adjuvant) or sterile water (control). The adjuvant treatment is repeated every other day or on the third day (as applicable) without change of growth medium. Untreated controls receive an equivalent amount of sterile water. After 2-3 treatments with adjuvant, cells are labeled with BudR as described below. (In some experiments, wells are refed an equal volume of growth medium prior to additional of BudR. This gives a higher amount of BrdU incorporation into DNA relative to no refluiding).
For DNA labeling, the following procedure are adapted and modified from the Cell Proliferation ELISA, BudR (Colorimetric) assay of Roche Diagnostics, Indianapolis, IN, USA: Each treated well is exposed to one-tenth volume of 10× BrdU-containing medium and reincubated and 37 C overnight (15-20 hrs.). One set of control wells is exposed to medium only (no BudR) to obtain an absorbance-control (substrate only) blank for the assay. After the labeling period, the culture medium is removed and the cells are fixed and DNA denatured in one step by adding FixDenat (30 min at RT). Then, FixDenat is removed, the anti-BrdU-peroxidase reagent is added and incubation continues for 90 min at RT. After removal of the latter, the plate is washed 3 times, followed by addition of substrate solution. The plate is kept at RT until color development became sufficient for photometric detection (5-10 min). […]

Turning to `O=C1O[C@H]([C@@H](O)CO)C(O)=C1O` [AA, Ascorbic acid, reference compound], the “suppression of hepatoma proliferation, ADR plus adjuvant compared with ADR alone” value (from here on “suppression … compared with ADR alone”) is “greater suppression of hepatoma proliferation than ADR alone”. For the same compound, where the note is “listed as Ascorbic Acid (AA)”, the “suppression … compared with ADR alone” value is reported as “greater suppression of hepatoma proliferation than doxorubicin alone”.
Take calcium di-(L-ascorbate) dihydrate: the “suppression … compared with ADR alone” value (dihydrate) is given as “greater suppression of hepatoma proliferation than ADR alone”; the “suppression … compared with ADR alone” value (listed as Calcium Ascorbate (CA), dihydrate) was “greater suppression of hepatoma proliferation than doxorubicin alone”; the “suppression … compared with ADR alone” value (listed as Calcium ascorbate, dihydrate) is “more effective than ascorbic acid”. For the setting “adjuvant at 0.033%, FIG. 4”, the “effect of adjuvant on anti-proliferation activity of low doses of ADR in hepatoma cells” value is “consistently improve the anti-proliferation activity of low doses of ADR”.

The values above are taken from US6468980B1, “Methods and compositions for potentiating cancer chemotherapeutic agents” (Oxycal Laboratories, Inc., priority 2000, dated 2002).
